# Experimental data reported in US20200017495A1, “NOVEL HETEROCYCLIC COMPOUNDS AND THEIR USE IN PREVENTING OR TREATING BACTERIAL INFECTIONS” (priority 2017, published 2020).
# Tested on: Enterobacter cloacae (ECL) isolates
# Experiment: MIC of compounds alone and combined with antibacterials, broth microdilution (CLSI)
# Assay type: cell-based
# Procedure, shortened: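 Log-phase isolates were inoculated at a final 5.10^5 CFU/mL in cation-adjusted Mueller-Hinton broth and incubated 16-20 h at 35° C in ambient air. MIC was the lowest concentration preventing visible growth; for combinations, the antibacterial MIC was read at each compound concentration.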
smiles,measurement,setting,value
"C=CC1=C(C(=O)O)N2C(=O)[C@@H](NC(=O)/C(=N\OCC(=O)O)c3csc(N)n3)[C@H]2SC1 [FIX, Cefixime]",MIC ATB in combination,"ECL 2185D, AF2 @ 8 μg/mL",>128 µg/mL
same,MIC ATB in combination,"ECL 2185D, AF3 @ 8 μg/mL",>128 µg/mL
same,MIC ATB in combination,"ECL 2185D, CLA @ 4 μg/mL",>128 µg/mL
same,MIC ATB in combination,"ECL 190310, AF2 @ 8 μg/mL",>128 µg/mL
same,MIC ATB in combination,"ECL 190310, AF3 @ 8 μg/mL",64 µg/mL
same,MIC ATB in combination,"ECL 190310, CLA @ 4 μg/mL",>128 µg/mL
same,MIC ATB in combination,"ECL 190408, AF2 @ 8 μg/mL",<0.25 µg/mL
same,MIC ATB in combination,"ECL 190408, AF3 @ 8 μg/mL",<0.25 µg/mL
same,MIC ATB in combination,"ECL 190408, CLA @ 4 μg/mL",128 µg/mL
same,MIC ATB in combination,"ECL 200138, AF2 @ 8 μg/mL",>128 µg/mL
same,MIC ATB in combination,"ECL 200138, AF3 @ 8 μg/mL",>128 µg/mL
same,MIC ATB in combination,"ECL 200138, CLA @ 4 μg/mL",>128 µg/mL
same,MIC ATB in combination,"ECL 200322, AF2 @ 8 μg/mL",<=0.25 μg/mL
same,MIC ATB in combination,"ECL 200322, AF3 @ 8 μg/mL",<0.25 µg/mL
same,MIC ATB in combination,"ECL 200322, CLA @ 4 μg/mL",64 µg/mL
same,MIC ATB in combination,"ECL 260033, AF2 @ 8 μg/mL",>128 µg/mL
same,MIC ATB in combination,"ECL 260033, AF3 @ 8 μg/mL",>128 µg/mL
same,MIC ATB in combination,"ECL 260033, CLA @ 4 μg/mL",>128 µg/mL
same,MIC ATB in combination,"ECL 260253, AF2 @ 8 μg/mL",<0.25 µg/mL
same,MIC ATB in combination,"ECL 260253, AF3 @ 8 μg/mL",<=0.25 μg/mL
same,MIC ATB in combination,"ECL 260253, CLA @ 4 μg/mL",64 µg/mL
same,MIC ATB in combination,"ECL 260323, AF2 @ 8 μg/mL",<0.25 µg/mL
same,MIC ATB in combination,"ECL 260323, AF3 @ 8 μg/mL",<0.25 µg/mL
same,MIC ATB in combination,"ECL 260323, CLA @ 4 μg/mL",>128 µg/mL
same,MIC ATB in combination,"ECL 260508, AF2 @ 8 μg/mL",<0.25 µg/mL
same,MIC ATB in combination,"ECL 260508, AF3 @ 8 μg/mL",<=0.25 μg/mL
same,MIC ATB in combination,"ECL 260508, CLA @ 4 μg/mL",32 µg/mL
same,MIC ATB in combination,"ECL HAN, AF2 @ 8 μg/mL",>128 µg/mL
same,MIC ATB in combination,"ECL HAN, AF3 @ 8 μg/mL",>128 µg/mL
same,MIC ATB in combination,"ECL HAN, CLA @ 4 μg/mL",>128 µg/mL
same,MIC ATB in combination,"ECL NEM146383, AF2 @ 8 μg/mL",>128 µg/mL
same,MIC ATB in combination,"ECL NEM146383, AF3 @ 8 μg/mL",16 µg/mL
same,MIC ATB in combination,"ECL NEM146383, CLA @ 4 μg/mL",>128 µg/mL
same,MIC ATB in combination,"ECL P99, AF2 @ 8 μg/mL",4 µg/mL
same,MIC ATB in combination,"ECL P99, AF3 @ 8 μg/mL",8 µg/mL
same,MIC ATB in combination,"ECL P99, CLA @ 4 μg/mL",>128 µg/mL
same,MIC ATB in combination,"ECL UFR12, AF2 @ 8 μg/mL",<=0.25 μg/mL
same,MIC ATB in combination,"ECL UFR12, AF3 @ 8 μg/mL",<=0.25 μg/mL
same,MIC ATB in combination,"ECL UFR12, CLA @ 4 μg/mL",8 µg/mL
same,MIC ATB in combination,"ECL UFR13, AF2 @ 8 μg/mL",4 µg/mL
same,MIC ATB in combination,"ECL UFR13, AF3 @ 8 μg/mL",2 µg/mL
same,MIC ATB in combination,"ECL UFR13, CLA @ 4 μg/mL",128 µg/mL
same,MIC ATB in combination,"ECL UFR14, AF2 @ 8 μg/mL",32 µg/mL
same,MIC ATB in combination,"ECL UFR14, AF3 @ 8 μg/mL",32 µg/mL
same,MIC ATB in combination,"ECL UFR14, CLA @ 4 μg/mL",>128 µg/mL
same,MIC ATB in combination,"ECL UFR38, AF2 @ 8 μg/mL",<0.25 µg/mL
same,MIC ATB in combination,"ECL UFR38, AF3 @ 8 μg/mL",>128 µg/mL
same,MIC ATB in combination,"ECL UFR38, CLA @ 4 μg/mL",>128 µg/mL
same,MIC ATB in combination,"ECL UFR51, AF2 @ 8 μg/mL",<0.25 µg/mL
same,MIC ATB in combination,"ECL UFR51, AF3 @ 8 μg/mL",<0.25 µg/mL
same,MIC ATB in combination,"ECL UFR51, CLA @ 4 μg/mL",>128 µg/mL
same,MIC ATB in combination,"ECL UFR60, AF2 @ 8 μg/mL",128 µg/mL
same,MIC ATB in combination,"ECL UFR60, AF3 @ 8 μg/mL",8 µg/mL
same,MIC ATB in combination,"ECL UFR60, CLA @ 4 μg/mL",128 µg/mL
same,MIC ATB in combination,"ECL UFR70, AF2 @ 8 μg/mL",<=0.25 μg/mL
same,MIC ATB in combination,"ECL UFR70, AF3 @ 8 μg/mL",<0.25 µg/mL
same,MIC ATB in combination,"ECL UFR70, CLA @ 4 μg/mL",>128 µg/mL
same,MIC ATB in combination,"ECL UFR84, AF2 @ 8 μg/mL",>128 µg/mL
same,MIC ATB in combination,"ECL UFR84, AF3 @ 8 μg/mL",64 µg/mL
same,MIC ATB in combination,"ECL UFR84, CLA @ 4 μg/mL",>128 µg/mL
same,MIC ATB in combination,"ECL UFR85, AF2 @ 8 μg/mL",<0.25 µg/mL
same,MIC ATB in combination,"ECL UFR85, AF3 @ 8 μg/mL",1 µg/mL
same,MIC ATB in combination,"ECL UFR85, CLA @ 4 μg/mL",>128 µg/mL
same,MIC ATB in combination,"ECL UFR200, AF2 @ 8 μg/mL",1 µg/mL
same,MIC ATB in combination,"ECL UFR200, AF3 @ 8 μg/mL",0.5 µg/mL
same,MIC ATB in combination,"ECL UFR200, CLA @ 4 μg/mL",16 µg/mL
same,MIC,"strain ECL 2185D, genotype OXA-163",>128 µg/mL
same,MIC,"strain ECL 190310, genotype AmpC",>128 µg/mL
same,MIC,"strain ECL 190408, genotype TEM-1, CTX-M-15, OXA-1",512 µg/mL
same,MIC,"strain ECL 200138, genotype AmpC",>128 µg/mL
same,MIC,"strain ECL 200322, genotype TEM-1, CTX-M-15, OXA-1",>128 µg/mL
same,MIC,"strain ECL 260033, genotype AmpC",>128 µg/mL
same,MIC,"strain ECL 260253, genotype TEM-1, KPC-3",>128 µg/mL
same,MIC,"strain ECL 260323, genotype AmpC",>128 µg/mL
same,MIC,"strain ECL 260508, genotype TEM-1, CTX-M-15",>128 µg/mL
same,MIC,"strain ECL HAN, genotype OXA-35",>128 µg/mL
same,MIC,"strain ECL NEM146383, genotype AmpC",>128 µg/mL
same,MIC,"strain ECL P99, genotype AmpC",>128 µg/mL
same,MIC,"strain ECL UFR12, genotype CTX-M-9, OXA-48",16 µg/mL
same,MIC,"strain ECL UFR13, genotype TEM-1, SHV-12, CTX-M-9, OXA-48",>128 µg/mL
same,MIC,"strain ECL UFR14, genotype TEM-1, SHV-12, CTX-M-15, DHA-1, OXA-1, OXA-48",>128 µg/mL
same,MIC,"strain ECL UFR38, genotype CTX-M-15, NDM-1",>128 µg/mL
same,MIC,"strain ECL UFR51, genotype SHV-12, IMP-8",>128 µg/mL
same,MIC,"strain ECL UFR60, genotype TEM-1, CTX-M-15, KPC-2",>128 µg/mL
same,MIC,"strain ECL UFR70, genotype TEM-1, CTX-M-15, CMY-2, OXA-1, Porin loss",>128 µg/mL
same,MIC,"strain ECL UFR84, genotype TEM-1, AmpC, OXA-1",>128 µg/mL
same,MIC,"strain ECL UFR85, genotype TEM-1, CTX-M-15, AmpC",>128 µg/mL
same,MIC,"strain ECL UFR192, genotype TEM-1, NDM-1, antibiotic alone",>128 µg/mL
same,MIC ATB in combination,"strain ECL UFR192, with AF2 @ 8 μg/mL",>128 µg/mL
same,MIC ATB in combination,"strain ECL UFR192, with AF3 @ 8 μg/mL",>128 µg/mL
